Like-named read-outs stand apart in the source and are kept apart here.
Columns and labels:
hOAT [1] = target: T1, hOAT (Homo sapiens, UniProt P04181); experiment: coupled enzyme hOAT assay; format: biochemical
T1 construct: made in house
T1 sequence (P04181 36-439 limits assumed): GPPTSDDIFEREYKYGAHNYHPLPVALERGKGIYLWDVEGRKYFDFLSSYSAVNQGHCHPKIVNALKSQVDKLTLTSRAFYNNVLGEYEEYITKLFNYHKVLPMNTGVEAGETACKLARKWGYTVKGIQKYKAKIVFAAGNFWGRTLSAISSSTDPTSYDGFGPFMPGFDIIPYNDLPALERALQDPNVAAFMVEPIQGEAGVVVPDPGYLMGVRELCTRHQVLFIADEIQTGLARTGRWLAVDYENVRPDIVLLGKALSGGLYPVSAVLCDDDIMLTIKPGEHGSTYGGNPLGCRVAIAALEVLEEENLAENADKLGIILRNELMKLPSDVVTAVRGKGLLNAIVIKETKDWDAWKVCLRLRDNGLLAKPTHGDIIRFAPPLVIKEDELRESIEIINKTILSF
Procedure: With inhibitors in hand, we tested for activity in a previously developed coupled enzyme hOAT assay.^9,21
hOAT and PYCR1 were expressed, grown, and purified according to literature procedures.^22,23 GABA-AT was isolated from pig brains and purified according to literature procedure.^16 Coupled enzyme assays for GABA-AT and hOAT were carried out according to previous procedures.^15,21 All chemical were purchased from Sigma Aldrich, Acros Organics, or Matrix Scientific and used without further purification. Anhydrous solvents (THF, CH2Cl2, DMF) were purified before use by passing through a column composed of activated alumina and a supported copper redox catalyst. Yields refer to chromatographically and spectroscopically (^1H-NMR) homogeneous material. Analytical thin-layer chromatography (TLC) was performed using Merck Silica Gel 60 Å F-254 precoated plates (0.25 mm thickness), and components were visualized by ultraviolet light (254 nm) and/or ceric ammonium molybdate stain. Flash column chromatography was performed on a Teledyne Combiflash Rf Plus automated flash purification system with various Teledyne cartridges (4-80 g, 40-63 μm, 60 Å). Purifications were performed with hexanes and ethyl acetate unless otherwise noted. ^1H and ^13C NMR spectra were recorded on a Bruker Avance-III NMR spectrometer at 500 MHz and 126 MHz, respectively, in CDCl3 or D2O. Chemical shifts were reported in ppm, multiplicities are indicated by s=singlet, d=doublet, t=triplet, q=quartet, sep=septet, dd=doublet of doublet, dt=doublet of triplet, m=multiplet, br=broad resonance. Coupling constants were reported in Hz. High resolution mass spectral data were obtained on an Agilent 6210 LC-TOF spectrometer in the positive ion mode using electrospray ionization with an Agilent G1312A HPLC pump and an Agilent G1367B autoinjector at the Integrated Molecular Structure Education and Research Center (IMSERC), Northwestern University. Analytical HPLC was performed by using a reserved-phase Agilent Infinity 1260 HPLC with a Phenomenex Kintex C-18 column (50×2.1 mm, 2.6 μm), detecting with UV absorbance at 254 nm.

hOAT [2] = target: T1, hOAT; conditions: earlier work, cited from earlier work
HCC = HCC infected/bearing mice; cited from earlier work

| Compound | kinact (hOAT [1]) [s⁻¹] | kinact/KI (hOAT [1]) [M⁻¹ s⁻¹] | Ki (hOAT [1]; hOAT inactivation) [µM] | inhibition/inactivation of human OAT (in words) (hOAT [2]) | inhibition/inactivation of human OAT (in words) (hOAT [2]; listed as (1S,3 S)-3-amino-4-(perfluoropropan-2-ylidene)cyclopentane-1-carboxylic acid) | HCC marker protein alpha-fetoprotein (HCC) | tumor size (HCC) | kinact (hOAT [1]; hOAT inactivation, read-out: kinact (converted)) [s⁻¹] | kinact/KI (hOAT [1]; hOAT inactivation, read-out: kinact/KI (converted)) [M⁻¹ s⁻¹] | activity against hOAT (in words) (hOAT [1]; hydrochloride) | activity against hOAT (in words) (hOAT [1]; listed as (1S,3S,Z)-3-amino-4-(1,1,1-trifluoro-3-methoxy-3-oxopropan-2-ylidene)cyclopentan, hydrochloride) | activity against hOAT (in words) (hOAT [1]) |
| --- | --- | --- | --- | --- | --- | --- | --- | --- | --- | --- | --- | --- |
| N[C@H]1C[C@@H](C(=O)O)CC1=C(C(F)(F)F)C(F)(F)F [Compound 1, (1S,3S)-3-amino-4-(perfluoropropan-2-ylidene)cyclopentane-1-carboxylic acid] | 0.00133 | 25.7 | 53 | potent inhibitor | potent inactivator | decrease | decrease | – | – | – | – | – |
| COC(=O)/C(=C1\C[C@H](C(=O)O)C[C@@H]1N)C(F)(F)F.Cl [Compound 10, (1S,3S,Z)-3-amino-4-(1,1,1-trifluoro-3-methoxy-3-oxopropan-2-ylidene)cyclopentane-1-carboxylic acid hydrochloride] | – | – | 130 | – | – | – | – | 0.00167 | 12.2 | similarly potent inhibitor of hOAT | active | – |
| COC(=O)/C(=C1/C[C@H](C(=O)O)C[C@@H]1N)C(F)(F)F.Cl [Compound 11, (1S,3S,E)-3-amino-4-(1,1,1-trifluoro-3-methoxy-3-oxopropan-2-ylidene)cyclopentane-1-carboxylic acid hydrochloride] | – | – | ≥ 2000 | – | – | – | – | – | – | – | – | inactive |
